Target: ERα (estrogen receptor α) (Homo sapiens, UniProt P03372)
Experiment: competitive radioligand binding assay with tritiated […]β-estradiol on recombinant hERα
Design: gene ESR1; recombinant hERα

ERα (estrogen receptor α), sequence (P03372 whole entry): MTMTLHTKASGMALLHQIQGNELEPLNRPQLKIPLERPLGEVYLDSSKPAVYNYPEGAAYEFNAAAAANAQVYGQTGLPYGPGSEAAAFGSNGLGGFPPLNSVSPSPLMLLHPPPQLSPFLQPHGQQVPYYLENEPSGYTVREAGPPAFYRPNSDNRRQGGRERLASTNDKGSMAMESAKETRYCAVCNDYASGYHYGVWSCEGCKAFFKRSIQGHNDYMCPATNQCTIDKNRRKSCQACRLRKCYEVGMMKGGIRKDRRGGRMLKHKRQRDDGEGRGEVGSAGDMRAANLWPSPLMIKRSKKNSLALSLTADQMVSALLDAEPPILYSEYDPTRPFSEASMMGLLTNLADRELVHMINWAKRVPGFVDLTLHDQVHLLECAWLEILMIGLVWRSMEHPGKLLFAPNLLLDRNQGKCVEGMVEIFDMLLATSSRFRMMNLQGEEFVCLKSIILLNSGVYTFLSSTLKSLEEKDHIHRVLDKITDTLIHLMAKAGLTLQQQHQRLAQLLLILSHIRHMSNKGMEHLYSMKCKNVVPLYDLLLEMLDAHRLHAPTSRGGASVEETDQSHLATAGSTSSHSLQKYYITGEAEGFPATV

For `C[C@]12CC[C@@H]3c4ccc(O)cc4CC[C@H]3[C@@H]1CC[C@@]2(O)C#Cc1cc(CN(CC(=O)[O-])CC(=O)[O-])nc(CN(CC(=O)[O-])CC(=O)[O-])c1.[Gd+3].[Na+]` [EPTA-Gd], the Ki was 970 ± 70 nM.

Work on `CC/C(=C(\c1ccc(C#Cc2cc(CN(CC(=O)[O-])CC(=O)[O-])nc(CN(CC(=O)[O-])CC(=O)[O-])c2)cc1)c1ccc(OCCN(C)C)cc1)c1ccccc1.[Gd+3].[Na+]` [TPTA-Gd] yielded a Ki of 130 ± 6 nM.
